Experimental data from the supplement of paper PMC11061612.

Tests used:
[1] = system: NCI-H1651 (Lung Adenocarcinoma); experiment: Bliss excess, mean over the matrix (fraction); higher = more synergy
Method in brief: (§1)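 Cell lines in DMEM/F12 or RPMI with 10% FBS were plated in 1536-well plates, held 24 hours at 37°C, 5% CO2, then given two-drug dose matrices for 72 hours (DMSO typically 0.2%). Viability was read by CellTiter-Glo 2.0 luminescence and scaled as inhibition from 0 (vehicle wells) to 1 (blank wells). Combination Emax is the second-highest inhibition in the matrix; Bliss excess is observed combination effect minus expected EA + EB − EA·EB, EA and EB being single-agent effects.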

IM-9 (Non-Cancerous) = experiment: as above
Method in brief: as §1

[2] = system: NCI-H2087 (Lung Adenocarcinoma); experiment: as above
Method in brief: as §1

WM1552C (Melanoma) = experiment: as above
Method in brief: as §1

[3] = system: SK-HEP-1 (Hepatocellular Carcinoma); experiment: as above
Method in brief: as §1

EW-7 (Ewing's Sarcoma) = experiment: as above
Method in brief: as §1

PEO1 (Ovarian Carcinoma) = experiment: as above
Method in brief: as §1

[4] = system: KYSE-140 (Esophageal Squamous Cell Carcinoma); experiment: combination Emax (second highest fraction inhibited in the dose matrix, 72 h); higher = more inhibition; extreme values may be limits of the assay
Method in brief: as §1

A204 (Rhabdomyosarcoma) = experiment: as above
Method in brief: as §1

[5] = system: CA46 (Burkitt's Lymphoma); experiment: as above
Method in brief: as §1

[6] = system: GCT (Other Solid Carcinomas); experiment: as above
Method in brief: as §1

NB13 (Neuroblastoma) = experiment: as above
Method in brief: as §1

[7] = system: HT55 (Colorectal Carcinoma); experiment: as above
Method in brief: as §1

[8] = system: huH-1 (Hepatocellular Carcinoma); experiment: as above
Method in brief: as §1

[9] = system: JVM-2 (B-Cell Non-Hodgkin's Lymphoma); experiment: as above
Method in brief: as §1

[10] = system: NCI-H2228 (Lung Adenocarcinoma); experiment: as above
Method in brief: as §1

[11] = system: CAL-27 (Oral Cavity Carcinoma); experiment: as above
Method in brief: as §1

EW-16 (Ewing's Sarcoma) = experiment: as above
Method in brief: as §1

[12] = system: EPLC-272H (Other Solid Carcinomas); experiment: as above
Method in brief: as §1

[13] = system: ESO26 (Esophageal Adenocarcinoma); experiment: as above
Method in brief: as §1
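Wherever Bliss excess, mean over the matrix is given: after 72 h of two-drug dosing.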

Compound | Bliss excess [1] | Bliss excess (IM-9 (Non-Cancerous)) | Bliss excess [2] | Bliss excess (WM1552C (Melanoma)) | Bliss excess [3] | Bliss excess (EW-7 (Ewing's Sarcoma)) | Bliss excess (PEO1 (Ovarian Carcinoma)) | combination Emax [4] | combination Emax (A204 (Rhabdomyosarcoma)) | combination Emax [5] | combination Emax [6] | combination Emax (NB13 (Neuroblastoma)) | combination Emax [7] | combination Emax [8] | combination Emax [9] | combination Emax [10] | combination Emax [11] | combination Emax (EW-16 (Ewing's Sarcoma)) | combination Emax [12] | combination Emax [13]
CN(CCO)CC[C@H](CSc1ccccc1)Nc1ccc(S(=O)(=O)NC(=O)c2ccc(N3CCC([C@@H](O)c4ccccc4-c4ccc(Cl)cc4)CC3)cc2)cc1S(=O)(=O)C(F)(F)F [AZD4320] + C1CN(CCC1(C(=O)N[C@@H](CCO)C2=CC=C(C=C2)Cl)N)C3=NC=NC4=C3C=CN4 [Capivasertib] (first compound max 1 µM, 7x7, partner max 3 µM) | -0.0005 | -0.0399 | -0.0696 | -0.0419 | -0.0545 | 0.0586 | -0.0691 | 0.664 | 0.266 | 0.251 | 0.449 | 1 | 0.292 | 0.197 | 0.702 | 0.329 | 0.191 | 0.461 | 0.642 | 0.345
CN(CCO)CC[C@H](CSc1ccccc1)Nc1ccc(S(=O)(=O)NC(=O)c2ccc(N3CCC([C@@H](O)c4ccccc4-c4ccc(Cl)cc4)CC3)cc2)cc1S(=O)(=O)C(F)(F)F [AZD4320] + C=CCn1c(=O)c2cnc(Nc3ccc(N4CCN(C)CC4)cc3)nc2n1-c1cccc(C(C)(C)O)n1 [AZD1775] (first compound max 1 µM, partner max 1 µM) | 0.0154 | 0.0638 | 0.0088 | 0.0085 | -0.0191 | 0.14 | 0.0352 | 0.849 | 0.334 | 0.667 | 0.481 | 1 | 0.899 | 0.613 | 0.981 | 0.512 | 0.364 | 0.904 | 0.909 | 0.709
CN(CCO)CC[C@H](CSc1ccccc1)Nc1ccc(S(=O)(=O)NC(=O)c2ccc(N3CCC([C@@H](O)c4ccccc4-c4ccc(Cl)cc4)CC3)cc2)cc1S(=O)(=O)C(F)(F)F [AZD4320] + CC(=O)O[C@H]1C(=O)[C@@]2(C)[C@H]([C@H](OC(=O)c3ccccc3)[C@]3(O)C[C@H](OC(=O)[C@H](O)[C@@H](NC(=O)c4ccccc4)c4ccccc4)C(C)=C1C3(C)C)[C@]1(OC(C)=O)CO[C@@H]1C[C@@H]2O [Paclitaxel] (first compound max 1 µM, 7x7, partner max 3 µM) | -0.0099 | 0.0239 | 0.13 | -0.0076 | 0.0236 | 0.132 | -0.0057 | – | – | – | – | – | – | – | – | – | – | – | – | –
CN(CCO)CC[C@H](CSc1ccccc1)Nc1ccc(S(=O)(=O)NC(=O)c2ccc(N3CCC([C@@H](O)c4ccccc4-c4ccc(Cl)cc4)CC3)cc2)cc1S(=O)(=O)C(F)(F)F [AZD4320] + CCN(CCO)CCCOc1ccc2c(Nc3cc(CC(=O)Nc4cccc(F)c4)[nH]n3)ncnc2c1 [AZD2811] (first compound max 1 µM, 7x7, partner max 1 µM) | -0.0013 | -0.0509 | 0.0018 | -0.0152 | 0.0932 | 0.126 | -0.0249 | 0.334 | 0.261 | 0.356 | 0.239 | 1 | 0.376 | 0.297 | 0.801 | 0.271 | 0.752 | 0.973 | 0.635 | 0.112
CN(CCO)CC[C@H](CSc1ccccc1)Nc1ccc(S(=O)(=O)NC(=O)c2ccc(N3CCC([C@@H](O)c4ccccc4-c4ccc(Cl)cc4)CC3)cc2)cc1S(=O)(=O)C(F)(F)F [AZD4320] + C[C@@H]1COCCN1C2=NC(=NC(=C2)C3(CC3)[S@](=N)(=O)C)C4=C5C=CNC5=NC=C4 [AZD6738] (first compound max 1 µM, 7x7, partner max 10 µM) | 0.0261 | 0.0007 | 0.0149 | -0.0969 | -0.0723 | 0.0835 | 0.0134 | 0.878 | 0.438 | 0.362 | 0.304 | 1 | 0.707 | 0.823 | 0.908 | 0.466 | 0.498 | 0.932 | 0.936 | 0.628
CN(CCO)CC[C@H](CSc1ccccc1)Nc1ccc(S(=O)(=O)NC(=O)c2ccc(N3CCC([C@@H](O)c4ccccc4-c4ccc(Cl)cc4)CC3)cc2)cc1S(=O)(=O)C(F)(F)F [AZD4320] + Nc1ccn([C@@H]2O[C@H](CO)[C@@H](O)C2(F)F)c(=O)n1 [Gemcitabine] (first compound max 1 µM, 7x7, partner max 0.3 µM) | 0.0198 | 0.043 | 0.0051 | 0.0167 | -0.108 | 0.0189 | -0.0368 | – | – | – | – | 0.934 | – | – | – | – | – | – | – | –
COc1nnc2ccc(N3CCC(c4ccc(OCCN5CCN(C)C(=O)[C@H]5C)cc4)CC3)nn12 [AZD5153] + CN(CC[C@H](CSC1=CC=CC=C1)NC2=C(C=C(C=C2)S(=O)(=O)NC(=O)C3=CC=C(C=C3)N4CCC(CC4)[C@H](C5=CC=CC=C5C6=CC=C(C=C6)Cl)O)S(=O)(=O)C(F)(F)F)CCO [AZD4320] (first compound max 1 µM, 7x7, partner max 1 µM) | – | – | – | – | – | – | – | 0.695 | 0.464 | 0.598 | 0.595 | – | 0.519 | 0.354 | 0.866 | 0.357 | 0.608 | 0.674 | 0.868 | 0.754
Cc1cc2ncnn2cc1Nc1ncc2c(n1)n(C1CCOCC1)c(=O)n2C [AZD7648] + COc1cc([C@@H]2c3cc4c(cc3[C@@H](O[C@@H]3O[C@@H]5CO[C@@H](C)O[C@H]5[C@H](O)[C@H]3O)[C@H]3COC(=O)[C@H]23)OCO4)cc(OC)c1O [Etoposide] (first compound max 10 µM, 7x7, partner max 10 µM) | 0.073 | 0.12 | 0.0674 | 0.0922 | 0.0472 | 0.0263 | 0.0461 | – | – | – | – | 0.653 | – | – | – | – | – | – | – | –
CC(=O)c1c(C)c2cnc(Nc3ccc(N4CCNCC4)cn3)nc2n(C2CCCC2)c1=O [Palbociclib] + CN(CC[C@H](CSC1=CC=CC=C1)NC2=C(C=C(C=C2)S(=O)(=O)NC(=O)C3=CC=C(C=C3)N4CCC(CC4)[C@H](C5=CC=CC=C5C6=CC=C(C=C6)Cl)O)S(=O)(=O)C(F)(F)F)CCO [AZD4320] (first compound max 10 µM, 7x7, partner max 1 µM) | – | – | – | – | – | – | – | 0.303 | 0.377 | 0.336 | 0.421 | – | 0.498 | 0.31 | 0.829 | 0.275 | 0.162 | 0.64 | 0.594 | 0.0747
N#Cc1cnc(Nc2cc(NC[C@H]3CNCCO3)c(C(F)(F)F)cn2)cn1 [SRA737] + C=CCn1c(=O)c2cnc(Nc3ccc(N4CCN(C)CC4)cc3)nc2n1-c1cccc(C(C)(C)O)n1 [AZD1775] (first compound max 10 µM, partner max 1 µM) | 0.0846 | 0.156 | 0.0238 | -0.0052 | -0.0452 | 0.0142 | -0.0117 | – | – | – | – | 0.853 | – | – | – | – | – | – | – | –
N#Cc1cnc(Nc2cc(NC[C@H]3CNCCO3)c(C(F)(F)F)cn2)cn1 [SRA737] + CCc1c2c(nc3ccc(O)cc13)-c1cc3c(c(=O)n1C2)COC(=O)[C@]3(O)CC [SN-38] (first compound max 10 µM, 7x7, partner max 0.3 µM) | -0.0101 | 0.0219 | 0.0137 | -0.0777 | -0.0793 | -0.0597 | -0.0697 | – | – | – | – | 0.88 | – | – | – | – | – | – | – | –
N#Cc1cnc(Nc2cc(NC[C@H]3CNCCO3)c(C(F)(F)F)cn2)cn1 [SRA737] + Nc1ccn([C@@H]2O[C@H](CO)[C@@H](O)C2(F)F)c(=O)n1 [Gemcitabine] (first compound max 10 µM, 7x7, partner max 0.3 µM) | 0.0124 | 0.0254 | 0.0059 | -0.0206 | -0.0002 | 0.0349 | 0.113 | – | – | – | – | – | – | – | – | – | – | – | – | –
N#Cc1cnc(Nc2cc(NC[C@H]3CNCCO3)c(C(F)(F)F)cn2)cn1 [SRA737] + O=c1[nH]cc(F)c(=O)[nH]1 [5-Fluorouracil] (first compound max 10 µM, 7x7, partner max 20 µM) | -0.0323 | 0.0007 | -0.0122 | 0.0347 | -0.122 | -0.0504 | 0.0228 | – | – | – | – | 0.732 | – | – | – | – | – | – | – | –
C[C@@H](c1ccc2nccn2c1)n1nnc2ncc(-c3cnn(C)c3)nc21 [Savolitinib] + CN(CC[C@H](CSC1=CC=CC=C1)NC2=C(C=C(C=C2)S(=O)(=O)NC(=O)C3=CC=C(C=C3)N4CCC(CC4)[C@H](C5=CC=CC=C5C6=CC=C(C=C6)Cl)O)S(=O)(=O)C(F)(F)F)CCO [AZD4320] (first compound max 1 µM, 7x7, partner max 1 µM) | – | – | – | – | – | – | – | 0.236 | 0.0836 | 0.0638 | 0.2 | – | 0.155 | 0.202 | 0.417 | 0.134 | 0.17 | 0.416 | 0.257 | 0.127
